Experimental data as given in patent publication US8969516B2, “Method of hydrolysis of peptide bond” (priority 2006, dated 2015).

Assay: MALDI-TOF screening of Ni^2+ dependent hydrolysis in a combinatorial peptide library
Format: physicochemical
Conditions: CH3CO-Gly-Ala-Ser-X-His-Z-Lys-Phe-Leu-NH2 library, Ni^2+ 2 mM, pH 8.2, 10 mM Tris, score=24/tm
Source text: The sequence CH3CO-Gly-Ala-Ser/Thr-X-His-Z-Lys-Phe-Leu-NH2 was designed so that the fixed R1 and R2 sequences, CH3CO-Gly-Ala, and Lys-Phe-Leu-NH2, respectively, allowed optimal detection by MALDI-TOF mass spectrometry of substrates as well as expected products, Ser/Thr-X-His-Z-Lys-Phe-Leu-NH2 and assured separation between the clusters of signals for substrates and products in sublibraries (see below).
Residues in position X included all amino acids commonly present in proteins, except for Asp, Glu, and Cys. The former two contain carboxylates in their side chains, which may bind Ni^2+ in a way which would quench or slow down the hydrolysis reaction. The Cys residue may do the same, and also may engage in side reactions with Ni^2+ ions, including redox processes (for example see Bal and Kasprzak, Toxicol. Lett. 2002, 127, 55-62). Only the Cys residue was eliminated from position Z, for the same reasons.
The synthesis of the library was accomplished on a RINK amide resin (Novabiochem) on a 800 mg scale, according to a typical Fmoc protocol (Fields, Meth. Enzymol. Vol. 289). The resin-attached Leu-Phe-Lys peptide was synthesised first and coupled with the isokinetic mixture of 19 amino acids selected for position Z, and then with the H is residue. The resin carrying the library of pentapeptides was divided into Ser and Thr halves at this stage, and each of these halves into 17 portions, which were coupled with individual amino acids selected for position X. The coupling with Ser or Thr as appropriate, additions of Ala and Gly residues, acetylation of Gly, deprotection and cleavage from the resin were accomplished subsequently. Each of the resulting 34 samples of sublibraries randomized at position X was separated into two portions, one for the reaction at 37° C. and another for the reaction at 45° C. The hydrolysis reactions were accomplished in 10 mM Tris buffers at pH 8.2. The total concentrations of peptide mixtures and Ni^2+ ions were 1 mM and 2 mM, respectively. The pH for the reaction was chosen as selective for highly reactive sequences.
The detection of reaction products was accomplished with the use of a MALDI-TOF mass spectrometer (Micromass). The aliquots were removed from reaction mixtures and measured by MS at 2, 4, 6, and 8 hours of incubation. The progress of reaction was evaluated by visual detection in mass spectra of appearance of signals corresponding to expected products of hydrolysis, Ser/Thr-X-His-Z-Lys-Phe-Leu-NH2, at given measurement times, tm. […] Also the decrease of signals of substrates was controlled in these cases.
Residues X and Z were then sorted according to various molecular parameters, describing their physical properties (Carugo, In Silico Biol. 2003, 3, 0035). […] The Ser library provided a higher number of reactive peptides than the Thr library. Following the additivity of effects, the scores were also summed up in lines and columns of Table 1A-D, thereby creating final rankings for preferred substitutions in positions X and Z.

Row | Substance | hydrolysis score from MALDI-TOF screening (37° C.) | hydrolysis score from MALDI-TOF screening (45° C.)
1 | Ac-GASAHDKFL-NH2 [SAHD] | 0 (a score of 0 if no trace of the product of hydrolysis was seen after 8 hours of incubation) | 0 (a score of 0 if no trace of the product of hydrolysis was seen after 8 hours of incubation)
2 | Ac-GASAHFKFL-NH2 [SAHF] | 0 (a score of 0 if no trace of the product of hydrolysis was seen after 8 hours of incubation) | 3 (a score of 3 for detection at 8 hours)
3 | Ac-GASAHGKFL-NH2 [SAHG] | 0 (a score of 0 if no trace of the product of hydrolysis was seen after 8 hours of incubation) | 0 (a score of 0 if no trace of the product of hydrolysis was seen after 8 hours of incubation)
4 | Ac-GASAHIKFL-NH2 [SAHI] | 0 (a score of 0 if no trace of the product of hydrolysis was seen after 8 hours of incubation) | 4 (a score of 4 for detection at 6 hours)
5 | Ac-GASAHKKFL-NH2 [SAHK] | 3 (a score of 3 for detection at 8 hours) | 6 (a score of 6 for detection at 4 hours)
6 | Ac-GASAHLKFL-NH2 [SAHL] | 0 (a score of 0 if no trace of the product of hydrolysis was seen after 8 hours of incubation) | 4 (a score of 4 for detection at 6 hours)
7 | Ac-GASAHMKFL-NH2 [SAHM] | 0 (a score of 0 if no trace of the product of hydrolysis was seen after 8 hours of incubation) | 0 (a score of 0 if no trace of the product of hydrolysis was seen after 8 hours of incubation)
8 | Ac-GASAHNKFL-NH2 [SAHN] | 0 (a score of 0 if no trace of the product of hydrolysis was seen after 8 hours of incubation) | 0 (a score of 0 if no trace of the product of hydrolysis was seen after 8 hours of incubation)
9 | Ac-GASAHQKFL-NH2 [SAHQ] | 0 (a score of 0 if no trace of the product of hydrolysis was seen after 8 hours of incubation) | 0 (a score of 0 if no trace of the product of hydrolysis was seen after 8 hours of incubation)
10 | Ac-GASAHRKFL-NH2 [SAHR] | 3 (a score of 3 for detection at 8 hours) | 6 (a score of 6 for detection at 4 hours)
11 | Ac-GASAHSKFL-NH2 [SAHS] | 0 (a score of 0 if no trace of the product of hydrolysis was seen after 8 hours of incubation) | 0 (a score of 0 if no trace of the product of hydrolysis was seen after 8 hours of incubation)
12 | Ac-GASAHTKFL-NH2 [SAHT] | 0 (a score of 0 if no trace of the product of hydrolysis was seen after 8 hours of incubation) | 0 (a score of 0 if no trace of the product of hydrolysis was seen after 8 hours of incubation)
13 | Ac-GASAHVKFL-NH2 [SAHV] | 0 (a score of 0 if no trace of the product of hydrolysis was seen after 8 hours of incubation) | 3 (a score of 3 for detection at 8 hours)
14 | Ac-GASAHWKFL-NH2 [SAHW] | 4 (a score of 4 for detection at 6 hours) | 6 (a score of 6 for detection at 4 hours)
15 | Ac-GASAHYKFL-NH2 [SAHY] | 0 (a score of 0 if no trace of the product of hydrolysis was seen after 8 hours of incubation) | 3 (a score of 3 for detection at 8 hours)
16 | Ac-GASFHAKFL-NH2 [SFHA] | 0 (a score of 0 if no trace of the product of hydrolysis was seen after 8 hours of incubation) | 3 (a score of 3 for detection at 8 hours)
17 | Ac-GASFHDKFL-NH2 [SFHD] | 0 (a score of 0 if no trace of the product of hydrolysis was seen after 8 hours of incubation) | 0 (a score of 0 if no trace of the product of hydrolysis was seen after 8 hours of incubation)

Row | Substance | hydrolysis score from MALDI-TOF screening (37° C.) | hydrolysis score from MALDI-TOF screening (45° C.)
18 | Ac-GASFHEKFL-NH2 [SFHE] | 0 (a score of 0 if no trace of the product of hydrolysis was seen after 8 hours of incubation) | 3 (a score of 3 for detection at 8 hours)
19 | Ac-GASFHFKFL-NH2 [SFHF] | 3 (a score of 3 for detection at 8 hours) | 6 (a score of 6 for detection at 4 hours)
20 | Ac-GASFHGKFL-NH2 [SFHG] | 0 (a score of 0 if no trace of the product of hydrolysis was seen after 8 hours of incubation) | 0 (a score of 0 if no trace of the product of hydrolysis was seen after 8 hours of incubation)
21 | Ac-GASFHIKFL-NH2 [SFHI] | 4 (a score of 4 for detection at 6 hours) | 6 (a score of 6 for detection at 4 hours)
22 | Ac-GASFHKKFL-NH2 [SFHK] | 4 (a score of 4 for detection at 6 hours) | 6 (a score of 6 for detection at 4 hours)
23 | Ac-GASFHLKFL-NH2 [SFHL] | 4 (a score of 4 for detection at 6 hours) | 6 (a score of 6 for detection at 4 hours)
24 | Ac-GASFHMKFL-NH2 [SFHM] | 0 (a score of 0 if no trace of the product of hydrolysis was seen after 8 hours of incubation) | 3 (a score of 3 for detection at 8 hours)
25 | Ac-GASFHNKFL-NH2 [SFHN] | 0 (a score of 0 if no trace of the product of hydrolysis was seen after 8 hours of incubation) | 0 (a score of 0 if no trace of the product of hydrolysis was seen after 8 hours of incubation)
26 | Ac-GASFHPKFL-NH2 [SFHP] | 0 (a score of 0 if no trace of the product of hydrolysis was seen after 8 hours of incubation) | 0 (a score of 0 if no trace of the product of hydrolysis was seen after 8 hours of incubation)
27 | Ac-GASFHQKFL-NH2 [SFHQ] | 0 (a score of 0 if no trace of the product of hydrolysis was seen after 8 hours of incubation) | 0 (a score of 0 if no trace of the product of hydrolysis was seen after 8 hours of incubation)
28 | Ac-GASFHRKFL-NH2 [SFHR] | 4 (a score of 4 for detection at 6 hours) | 6 (a score of 6 for detection at 4 hours)
29 | Ac-GASFHSKFL-NH2 [SFHS] | 0 (a score of 0 if no trace of the product of hydrolysis was seen after 8 hours of incubation) | 0 (a score of 0 if no trace of the product of hydrolysis was seen after 8 hours of incubation)
30 | Ac-GASFHTKFL-NH2 [SFHT] | 0 (a score of 0 if no trace of the product of hydrolysis was seen after 8 hours of incubation) | 0 (a score of 0 if no trace of the product of hydrolysis was seen after 8 hours of incubation)
31 | Ac-GASFHVKFL-NH2 [SFHV] | 3 (a score of 3 for detection at 8 hours) | 6 (a score of 6 for detection at 4 hours)
32 | Ac-GASFHWKFL-NH2 [SFHW] | 4 (a score of 4 for detection at 6 hours) | 6 (a score of 6 for detection at 4 hours)
33 | Ac-GASFHYKFL-NH2 [SFHY] | 3 (a score of 3 for detection at 8 hours) | 6 (a score of 6 for detection at 4 hours)
34 | Ac-GASGHAKFL-NH2 [SGHA] | 0 (a score of 0 if no trace of the product of hydrolysis was seen after 8 hours of incubation) | 0 (a score of 0 if no trace of the product of hydrolysis was seen after 8 hours of incubation)
